{
  "source": "patent US9561212B2",
  "about": "“Hepatitis C virus inhibitors” (BRISTOL-MYERS SQUIBB COMPANY, priority 2012, dated 2017)",
  "data": [
    {"system": "HCV 1b genotype", "assay": "microbe, parasite or virus in culture", "assay_type": "cell-based, Hepatitis C virus", "conditions": "HCV 1b replicon; read-out: Range: EC50 ranges against HCV 1b", "procedure": "(§1) An HCV Replicon assay was utilized in the present disclosure, and was prepared, conducted and validated as described in commonly owned PCT/US2006/022197 and in O'Boyle et. al. Antimicrob Agents Chemother. 2005 April; 49(4):1346-53. Assay methods incorporating luciferase reporters have also been used as described (Apath.com).\n(§2) HCV-neo replicon cells and replicon cells containing resistance substitutions in the NS5A region were used to test the currently described family of compounds.", "units": {"EC50": "nM"}, "values": [
      {"smiles": "COC(=O)NC(C(=O)N1CC(C)CC1c1ncc(-c2ccc(C3CC3c3ccc(-c4cnc(C5CC(C)CN5C(=O)C(NC(=O)OC)C5CCOC6(CC6)C5)[nH]4)cc3)cc2)[nH]1)C1CCOC2(CC2)C1", "note": "[Example OL1, dimethyl (((3S,3′S,5S,5′S)-5,5′-(5,5′-((1S,2S)-cyclopropane-1,2-diylbis(4,1-phenylene))bis(1H-imidazole-5,2-diyl))bis(3-methylpyrrolidine-5,1-diyl))bis(2-oxo-1-(4-oxaspiro[2.5]octan-7-yl)ethane-2,1-diyl))dicarbamate]", "EC50": "0.00501 to 0.1"},
      {"smiles": "COC(=O)NC(C(=O)N1C(c2ncc(-c3ccc(C#Cc4ccc(-c5cnc(C6CC7CC7N6C(=O)C(NC(=O)OC)C6CCOC7(CC7)C6)[nH]5)cc4)cc3)[nH]2)CC2CC21)C1CCOC2(CC2)C1", "note": "[OL4, dimethyl (((1R,1′R,3S,3′S,5R,5′R)-3,3′-(5,5′-(ethyne-1,2-diylbis(4,1-phenylene))bis(1H-imidazole-5,2-diyl))bis(2-azabicyclo[3.1.0]hexane-3,2-diyl))bis(2-oxo-1-(4-oxaspiro[2.5]octan-7-yl)ethane-2,1-diyl))dicarbamate]", "EC50": "0.00501 to 0.1"},
      {"smiles": "COC(=O)NC(C(=O)N1CCCC1c1ncc(-c2ccc(C#Cc3ccc(-c4cnc(C5CCCN5C(=O)C(NC(=O)OC)C5CCOC6(CC6)C5)[nH]4)cc3)cc2)[nH]1)C1CCOC2(CC2)C1", "note": "[OL7, dimethyl (((2S,2′S)-2,2′-(5,5′-(ethyne-1,2-diylbis(4,1-phenylene))bis(1H-imidazole-5,2-diyl))bis(pyrrolidine-2,1-diyl))bis(2-oxo-1-(4-oxaspiro[2.5]octan-7-yl)ethane-2,1-diyl))dicarbamate]", "EC50": "0.00501 to 0.1"},
      {"smiles": "COC(=O)NC(C(=O)N1CCCC1c1nc2cc(C#Cc3ccc4[nH]c(C5CCCN5C(=O)C(NC(=O)OC)C5CCOC6(CC6)C5)nc4c3)ccc2[nH]1)C1CCOC2(CC2)C1", "note": "[OL9, dimethyl (((2S,2′S)-2,2′-(5,5′-(ethyne-1,2-diyl)bis(1H-benzo[d]imidazole-5,2-diyl))bis(pyrrolidine-2,1-diyl))bis(2-oxo-1-(4-oxaspiro[2.5]octan-7-ypethane-2,1-diyl))dicarbamate]", "EC50": "0.1 to 0.9"},
      {"smiles": "COC(=O)NC(C(=O)N1C[C@@H](C)C[C@H]1c1nc2cc(C#Cc3ccc4c(ccc5nc([C@@H]6C[C@H](C)CN6C(=O)C(NC(=O)OC)C6CCOC7(CC7)C6)[nH]c54)c3)ccc2[nH]1)C1CCOC2(CC2)C1", "note": "(some centres unmarked) [QC9]", "EC50": "0.00501 to 0.1"}
    ]},
    {"system": "HCV 1b genotype", "assay": "microbe, parasite or virus in culture", "assay_type": "cell-based, Hepatitis C virus", "conditions": "Hepatitis C virus, HCV 1b replicon; read-out: 1b (μM): EC50 (Effective 50% inhibitory concentration) against the HCV 1b genotype", "procedure": "as §1, §2", "units": {"EC50": "nM"}, "values": [
      {"smiles": "COC(=O)NC(C(=O)N1CCC[C@H]1c1nc(-c2ccc(-c3c[nH]c([C@@H]4CCCN4C(=O)C(NC(=O)OC)C4CCOC5(CC5)C4)n3)cc2)c[nH]1)C1CCOC2(CC2)C1", "note": "(stereo partly drawn) [Example QC14, dimethyl (benzene-1,4-diylbis(1H-imidazole-4,2-diyl(2S)pyrrolidine-2,1-diyl(1-(4-oxaspiro[2.5]oct-7-yl)-2-oxoethane-2,1-diyl)))biscarbamate]", "EC50": 14.5},
      {"smiles": "COC(=O)NC(C(=O)N1CCC[C@H]1c1nc2cc(-c3ccc4c(ccc5nc([C@@H]6CCCN6C(=O)C(NC(=O)OC)C6CCOC7(CC7)C6)[nH]c54)c3)ccc2[nH]1)C1CCOC2(CC2)C1", "note": "(stereo partly drawn) [QC10, methyl (2-((2S)-2-(7-(2-((2S)-1-(((methoxycarbonyl)amino)(4-oxaspiro[2.5]oct-7-yl)acetyl)-2-pyrrolidinyl)-1H-benzimidazol-5-yl)-1H-naphtho[1,2-d]imidazol-2-yl)-1-pyrrolidinyl)-1-(4-oxaspiro[2.5]oct-7-yl)-2-oxoethyl)carbamate]", "EC50": 0.259}
    ]},
    {"system": "HCV 1b genotype", "assay": "microbe, parasite or virus in culture", "assay_type": "cell-based, Hepatitis C virus", "conditions": "Hepatitis C virus, HCV 1b replicon; read-out: Range: EC50 ranges against HCV 1b", "procedure": "as §1, §2", "units": {"EC50": "nM"}, "values": [
      {"smiles": "COC(=O)N[C@H](C(=O)N1[C@@H]2C[C@@H]2C[C@H]1c1nc(-c2ccc(-c3ccc(-c4c[nH]c([C@@H]5C[C@H]6C[C@H]6N5C(=O)[C@@H](NC(=O)OC)C5CCC(=O)CC5)n4)cc3)cc2)c[nH]1)C1CCC(=O)CC1", "note": "[Example OL10, dimethyl (4,4′-biphenyldiylbis(1H-imidazole-4,2-diyl(1R,3S,5R)-2-azabicyclo[3.1.0]hexane-3,2-diyl((1S)-2-oxo-1-(4-oxocyclohexyl)-2,1-ethanediyl)))biscarbamate]", "EC50": "0.1 to 0.9"},
      {"smiles": "COC(=O)N[C@H](C(=O)N1[C@@H]2C[C@@H]2C[C@H]1c1nc(-c2ccc(-c3ccc(-c4c[nH]c([C@@H]5C[C@H]6C[C@H]6N5C(=O)[C@@H](NC(=O)OC)C56CC(C(F)(F)F)(C5)C6)n4)cc3)cc2)c[nH]1)C12CC(C(F)(F)F)(C1)C2", "note": "[Example OL11, dimethyl (4,4′-biphenyldiylbis(1H-imidazole-4,2-diyl(1R,3S,5R)-2-azabicyclo[3.1.0]hexane-3,2-diyl((1S)-2-oxo-1-(3-(trifluoromethyl)bicyclo[1.1.1]pent-1-yl)-2,1-ethanediyl)))biscarbamate]", "EC50": "0.00501 to 0.1"},
      {"smiles": "COC(=O)NC(C(=O)N1CCC[C@H]1c1nc(-c2ccc(-c3c[nH]c([C@@H]4CCCN4C(=O)C(NC(=O)OC)C4CCOC5(CC5)C4)n3)cc2)c[nH]1)C1CCOC2(CC2)C1", "note": "(stereo partly drawn) [Example QC14, dimethyl (benzene-1,4-diylbis(1H-imidazole-4,2-diyl(2S)pyrrolidine-2,1-diyl(1-(4-oxaspiro[2.5]oct-7-yl)-2-oxoethane-2,1-diyl)))biscarbamate]", "EC50": "0.9 to 700"},
      {"smiles": "COC(=O)NC(C(=O)N(C)[C@@H](C)c1nc2cc(C#Cc3ccc4nc([C@H](C)N(C)C(=O)C(NC(=O)OC)C5CCOC6(CC6)C5)[nH]c4c3)ccc2[nH]1)C1CCOC2(CC2)C1", "note": "(stereo partly drawn) [OL2, methyl (2-(((1S)-1-(5-((2-((1S)-1-((((methoxycarbonyl)amino)(4-oxaspiro[2.5]oct-7-yl)acetyl)(methyl)amino)ethyl)-1H-benzimidazol-6-yl)ethynyl)-1H-benzimidazol-2-yl)ethyl)(methyl)amino)-1-(4-oxaspiro[2.5]oct-7-yl)-2-oxoethyl)carbamate]", "EC50": "0.00501 to 0.1"},
      {"smiles": "COC(=O)NC(C(=O)N1[C@@H]2C[C@@H]2C[C@H]1c1ncc(-c2ccc(-c3ccc(-c4cnc([C@@H]5C[C@H]6C[C@H]6N5C(=O)[C@@H](NC(=O)OC)C(C)C)[nH]4)cc3)cc2)[nH]1)C1CCOC2(CC2)C1", "note": "(stereo partly drawn) [OL3, methyl ((2S)-1-((1R,3S,5R)-3-(5-(4′-(2-((1R,3S,5R)-2-(((methoxycarbonyl)amino)(4-oxaspiro[2.5]oct-7-yl)acetyl)-2-azabicyclo[3.1.0]hex-3-yl)-1H-imidazol-5-yl)biphenyl-4-yl)-1H-imidazol-2-yl)-2-azabicyclo[3.1.0]hex-2-yl)-3-methyl-1-oxobutan-2-yl)carbamate]", "EC50": "0.00501 to 0.1"},
      {"smiles": "COC(=O)NC(C(=O)N1CCC[C@H]1c1ncc(-c2ccc(-c3ccc(-c4cnc([C@@H]5CCCN5C(=O)C(NC(=O)OC)C5CCOC6(CC6)C5)[nH]4)cn3)cc2)[nH]1)C1CCOC2(CC2)C1", "note": "(stereo partly drawn) [OL6, methyl (2-((2S)-2-(5-(6-(4-(2-((2S)-1-(((methoxycarbonyl)amino)(4-oxaspiro[2.5]oct-7-yl)acetyl)pyrrolidin-2-yl)-1H-imidazol-5-yl)phenyl)pyridin-3-yl)-1H-imidazol-2-yl)pyrrolidin-1-yl)-1-(4-oxaspiro[2.5]oct-7-yl)-2-oxoethyl)carbamate]", "EC50": "0.1 to 0.9"},
      {"smiles": "COC(=O)N[C@H](C(=O)N1[C@@H](C)CC[C@H]1c1nc(-c2ccc(-c3ccc(-c4c[nH]c([C@@H]5CC[C@H](C)N5C(=O)[C@@H](NC(=O)OC)C56CC(C(F)(F)F)(C5)C6)n4)cc3)cc2)c[nH]1)C12CC(C(F)(F)F)(C1)C2", "note": "[OL12, dimethyl (4,4′-biphenyldiylbis(1H-imidazole-4,2-diyl((2S,5S)-5-methyl-2,1-pyrrolidinediyl)((1S)-2-oxo-1-(3-(trifluoromethyl)bicyclo [1.1.1]pent-1-yl)-2,1-ethanediyl)))biscarbamate]", "EC50": "0.1 to 0.9"},
      {"smiles": "COC(=O)NC(C(=O)N1CCC[C@H]1c1nc2cc(-c3ccc4c(ccc5nc([C@@H]6CCCN6C(=O)C(NC(=O)OC)C6CCOC7(CC7)C6)[nH]c54)c3)ccc2[nH]1)C1CCOC2(CC2)C1", "note": "(stereo partly drawn) [QC10, methyl (2-((2S)-2-(7-(2-((2S)-1-(((methoxycarbonyl)amino)(4-oxaspiro[2.5]oct-7-yl)acetyl)-2-pyrrolidinyl)-1H-benzimidazol-5-yl)-1H-naphtho[1,2-d]imidazol-2-yl)-1-pyrrolidinyl)-1-(4-oxaspiro[2.5]oct-7-yl)-2-oxoethyl)carbamate]", "EC50": "0.1 to 0.9"},
      {"smiles": "COC(=O)NC(C(=O)N1[C@@H]2C[C@@H]2C[C@H]1c1nc(-c2ccc(-c3ccc4c(c3)CCc3[nH]c([C@@H]5C[C@H]6C[C@H]6N5C(=O)C(NC(=O)OC)C5CCOC6(CC6)C5)nc3-4)cc2)c[nH]1)C1CCOC2(CC2)C1", "note": "(stereo partly drawn) [QC11, methyl (2-((1R,3S,5R)-3-(4-(4-(2-((1R,3S,5R)-2-(((methoxycarbonyl)amino)(4-oxaspiro[2.5]oct-7-yl)acetyl)-2-azabicyclo[3.1.0]hex-3-yl)-4,5-dihydro-3H-naphtho[1,2-d]imidazol-7-yl)phenyl)-1H-imidazol-2-yl)-2-azabicyclo[3.1.0]hex-2-yl)-1-(4-oxaspiro[2.5]oct-7-yl)-2-oxoethyl)carbamate]", "EC50": "0.00501 to 0.1"},
      {"smiles": "COC(=O)NC(C(=O)N1CCC[C@H]1c1nc2cc(-c3ccc(Oc4cccc5[nH]c([C@@H]6CCCN6C(=O)C(NC(=O)OC)C6CCOC7(CC7)C6)nc45)cc3)ccc2[nH]1)C1CCOC2(CC2)C1", "note": "(stereo partly drawn) [QC15, methyl (2-((2S)-2-(5-(4-((2-((2S)-1-(((methoxycarbonyl)amino)(4-oxaspiro[2.5]oct-7-yl)acetyl)pyrrolidin-2-yl)-1H-benzimidazol-4-yl)oxy)phenyl)-1H-benzimidazol-2-yl)pyrrolidin-1-yl)-1-(4-oxaspiro[2.5]oct-7-yl)-2-oxoethyl)carbamate]", "EC50": "0.00501 to 0.1"},
      {"smiles": "COC(=O)N[C@H](C(=O)N1[C@H](c2nc(-c3ccc(-c4ccc(-c5c[nH]c([C@@H]6C[C@@]7(C)C[C@H]7N6C(=O)[C@@H](NC(=O)OC)[C@H]6CCOC7(CC7)C6)n5)cc4)cc3)c[nH]2)C[C@@]2(C)C[C@@H]12)[C@H]1CCOC2(CC2)C1", "note": "[QC19, dimethyl (4,4′-biphenyldiylbis(1H-imidazole-4,2-diyl((1R,3S,5R)-5-methyl-2-azabicyclo[3.1.0]hexane-3,2-diyl)(1-(4-oxaspiro[2.5]oct-7-yl)-2-oxo-2,1-ethanediyl)))biscarbamate]", "EC50": "0.00501 to 0.1"}
    ]},
    {"system": "HCV 1b genotype", "assay": "microbe, parasite or virus in culture", "assay_type": "cell-based, Hepatitis C virus", "conditions": "read-out: Range: EC50 ranges against HCV 1b", "procedure": "as §1, §2", "units": {"EC50": "nM"}, "values": [
      {"smiles": "COC(=O)NC(C(=O)N1C(c2nc(Cl)c(-c3ccc(-c4ccc(-c5[nH]c(C6CC7CC7N6C(=O)C(NC(=O)OC)C6CCOC7(CC7)C6)nc5Cl)cc4)cc3)[nH]2)CC2CC21)C1CCOC2(CC2)C1", "note": "[OL5, dimethyl (((1R,1′R,3S,3′S,5R,5′R)-3,3′-(5,5′-([1,1′-biphenyl]-4,4′-diyl)bis(4-chloro-1H-imidazole-5,2-diyl))bis(2-azabicyclo[3.1.0]hexane-3,2-diyl))bis(2-oxo-1-(4-oxaspiro[2.5]octan-7-yl)ethane-2,1-diyl))dicarbamate]", "EC50": "0.00501 to 0.1"},
      {"smiles": "COC(=O)NC(C(=O)N1CCOCC1c1ncc(-c2ccc(-c3ccc(-c4cnc(C5COCCN5C(=O)C(NC(=O)OC)C5CCOC6(CC6)C5)[nH]4)cc3)cc2)[nH]1)C1CCOC2(CC2)C1", "note": "[OL8, dimethyl (((3R,3′R)-3,3′-(5,5'-([1,1′-biphenyl]-4,4′-diyl)bis(1H-imidazole-5,2-diyl))bis(morpholine-4,3-diyl))bis(2-oxo-1-(4-oxaspiro[2.5]octan-7-yl)ethane-2,1 diyl))dicarbamate]", "EC50": "0.1 to 0.9"}
    ]}
  ]
}
